Data as given in patent US12110294B2, “CD73 compounds” (Gilead Sciences, Inc., priority 2020, dated 2024).

Key:
CD73 = molecular target: T1, CD73 (Homo sapiens, UniProt P21589); format: biochemical; conditions: 1 mM NaH2PO4 in enzyme buffer, final AMP 15 uM, final CD73 0.3 nM
T1 construct: purchased R&D system
T1 sequence (P21589 27-549): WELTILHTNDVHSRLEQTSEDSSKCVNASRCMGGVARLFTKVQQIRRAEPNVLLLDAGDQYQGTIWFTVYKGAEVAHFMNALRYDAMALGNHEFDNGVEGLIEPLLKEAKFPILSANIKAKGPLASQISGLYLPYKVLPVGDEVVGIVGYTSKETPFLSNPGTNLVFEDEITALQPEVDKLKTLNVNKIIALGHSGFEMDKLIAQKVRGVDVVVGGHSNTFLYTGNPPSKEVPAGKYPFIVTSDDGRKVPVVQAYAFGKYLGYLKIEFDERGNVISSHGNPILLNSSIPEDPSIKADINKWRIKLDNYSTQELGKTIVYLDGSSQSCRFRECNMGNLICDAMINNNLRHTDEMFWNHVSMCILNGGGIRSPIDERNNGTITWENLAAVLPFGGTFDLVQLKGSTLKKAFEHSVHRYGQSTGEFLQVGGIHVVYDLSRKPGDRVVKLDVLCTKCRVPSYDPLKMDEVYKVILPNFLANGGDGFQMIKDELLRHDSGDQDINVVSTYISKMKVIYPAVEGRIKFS

[1] = molecular target: T2, CD73 activity in MDA-MB-231-GFP cells (Homo sapiens, UniProt P21589); test: MDA-MB-231 Cell Based CD73 Activity Assay (DMEM); conditions: 3000 cells per well, DMEM medium with 10% human plasma, overnight compound treatment, AMP 200 uM
T2 construct: endogenous in cells; host or cells: MDA-MB-231-GFP cells
T2 sequence (P21589 27-549): T1 sequence (P21589 27-549)

| Compound | IC50 (CD73) | EC50 [1] |
| --- | --- | --- |
| O=c1[nH]cc(-c2cc(N3C[C@@H]4C[C@H]3C(F)(F)C4)c3nccn3n2)c(=O)[nH]1 [Example 644, 5-(8-(6,6-difluoro-2-azabicyclo[2.2.1]heptan-2-yl)imidazo[1,2-b]pyridazin-6-yl)pyrimidine-2,4(1H,3H)-dione] | > 250 nM | 1420 nM |
| O=c1[nH]cc(-c2cc([C@H]3C[C@@H]3c3ccc(F)cc3F)n3ncnc3n2)c(=O)[nH]1 [Example 416, 5-(7-((2S,2S)-2-(2,4-difluorophenyl)cyclopropyl)-[1,2,4]triazolo[1,5-a]pyrimidin-5-yl)pyrimidine-2,4(1H,3H)-dione] | 0.71 nM | 33.5 nM |
| O=C(c1cn2nc(-c3c[nH]c(=O)[nH]c3=O)cc([C@H]3C[C@@H]3c3ccc(F)cc3)c2n1)N1C[C@@H](F)[C@@H](F)C1 (racemic) [Example 200, 5-[2-[(3S,4R)-3,4-difluoropyrrolidine-1-carbonyl]-8-[(1S,2S)-2-(4-fluorophenyl)cyclopropyl]imidazo[1,2-b]pyridazin-6-yl]-1H-pyrimidine-2,4-dione] | > 250 nM | 809 nM |
| N#Cc1nn(CC(F)(F)F)c2cc([C@H]3C[C@@H]3c3cc(-c4c[nH]c(=O)[nH]c4=O)nn4ccnc34)ccc12 (racemic) [Example 362, 6-((1S,2S)-2-(6-(2,4-dioxo-1,2,3,4-tetrahydropyrimidin-5-yl)imidazo[1,2-b]pyridazin-8-yl)cyclopropyl)-1-(2,2,2-trifluoroethyl)-1H-indazole-3-carbonitrile] | 2.98 nM | 1 nM |
| O=c1[nH]cc(-c2cc(N3C[C@@H](O)C(F)(F)C3)c3nccn3n2)c(=O)[nH]1 (single isomer, unassigned) [Example 528] | 6.25 nM | 12.9 nM |
| O=c1[nH]cc(-c2cc([C@H]3C[C@@H]3c3ccc(C(F)F)cn3)c3nccn3n2)c(=O)[nH]1 (racemic) [Example 379, 5-(8-((1S,2S)-2-(5-(difluoromethyl)pyridin-2-yl)cyclopropyl)imidazo[1,2-b]pyridazin-6-yl)pyrimidine-2,4(1H,3H)-dione] | 1.98 nM | 5.89 nM |
| O=c1[nH]cc(-c2cc([C@H]3C[C@@H]3c3cnc4cnn(CC(F)(F)F)c4c3)c3nccn3n2)c(=O)[nH]1 (racemic) [Example 614, 5-(8-((1S,2S)-2-(1-(2,2,2-trifluoroethyl)-1H-pyrazolo[4,3-b]pyridin-6-yl)cyclopropyl)imidazo[1,2-b]pyridazin-6-yl)pyrimidine-2,4(1H,3H)-dione] | 2.06 nM | 0.13 nM |
| O=c1[nH]cc(-c2cc([C@H]3C[C@@H]3c3ccc(OCC(F)F)cn3)c3nccn3n2)c(=O)[nH]1 (racemic) [Example 590, 5-(8-((2S,2S)-2-(5-(2,2-difluoroethoxy)pyridin-2-yl)cyclopropyl)imidazo[1,2-b]pyridazin-6-yl)pyrimidine-2,4(1H,3H)-dione] | 1.05 nM | 2.04 nM |
| O=c1[nH]cc(-c2cc([C@H]3C[C@@H]3c3cnc(C(F)(F)F)s3)c3nccn3n2)c(=O)[nH]1 (racemic) [Example 365, 5-(8-((2S,2S)-2-(2-(trifluoromethyl)thiazol-5-yl)cyclopropyl)imidazo[1,2-b]pyridazin-6-yl)pyrimidine-2,4(1H,3H)-dione] | 7.62 nM | 32.8 nM |
| O=c1[nH]cc(-c2cc([C@H]3C[C@@H]3c3ccc(C(F)(F)F)cc3)n3ncnc3n2)c(=O)[nH]1 [Example 417, 5-(7-((2S,2S)-2-(4-(trifluoromethyl)phenyl)cyclopropyl)-[1,2,4]triazolo[1,5-a]pyrimidin-5-yl)pyrimidine-2,4(1H,3H)-dione] | 0.87 nM | 12.6 nM |
| O=c1[nH]cc(-c2cc([C@H]3C[C@@H]3c3ccc4cnn(CCC(F)(F)F)c4c3)c3nccn3n2)c(=O)[nH]1 (racemic) [Example 361, 5-(8-((1S,2S)-2-(1-(3,3,3-trifluoropropyl)-1H-indazol-6-yl)cyclopropyl)imidazo[1,2-b]pyridazin-6-yl)pyrimidine-2,4(1H,3H)-dione] | 2.72 nM | 2.53 nM |
| O=c1[nH]cc(-c2cc([C@H]3C[C@@H]3c3ccc4c(c3)ncn4CC(F)(F)F)c3nccn3n2)c(=O)[nH]1 [Example 324, 5-(8-((1S,2S)-2-(1-(2,2,2-trifluoroethyl)-1H-benzo[d]imidazol-5-yl)cyclopropyl)imidazo[1,2-b]pyridazin-6-yl)pyrimidine-2,4(1H,3H)-dione] | 1.15 nM | 1.59 nM |
| O=c1[nH]cc(-c2cc([C@H]3C[C@@H]3c3ccnc(C(F)(F)F)n3)c3nccn3n2)c(=O)[nH]1 (racemic) [Example 271, 5-(8-((2S,2S)-2-(2-(trifluoromethyl)pyrimidin-4-yl)cyclopropyl)imidazo[1,2-b]pyridazin-6-yl)pyrimidine-2,4(1H,3H)-dione] | 33.6 nM | 102 nM |
| COC(=O)[C@H]1[C@@H]2CN(c3cc(-c4c[nH]c(=O)[nH]c4=O)nn4ccnc34)C[C@@H]21 [Example 314, methyl (1R,5S,6r)-3-(6-(2,4-dioxo-1,2,3,4-tetrahydropyrimidin-5-yl)imidazo[1,2-b]pyridazin-8-yl)-3-azabicyclo[3.1.0]hexane-6-carboxylate] | > 250 nM |  |
| O=c1[nH]cc(-c2cc([C@H]3C[C@@H]3c3nc(C(F)(F)F)cs3)c3nccn3n2)c(=O)[nH]1 (racemic) [Example 367, 5-(8-((2S,2S)-2-(4-(trifluoromethyl)thiazol-2-yl)cyclopropyl)imidazo[1,2-b]pyridazin-6-yl)pyrimidine-2,4(1H,3H)-dione] | 17.5 nM | 67.6 nM |
| O=c1[nH]cc(-c2cc([C@H]3C[C@@H]3c3ccc(OC(F)(F)F)cc3)c3ncc(F)n3n2)c(=O)[nH]1 (racemic) [Example 277, 5-(3-fluoro-8-((2S,2S)-2-(4-(trifluoromethoxy)phenyl)cyclopropyl)imidazo[1,2-b]pyridazin-6-yl)pyrimidine-2,4(1H,3H)-dione] | 3.77 nM | 79 nM |
| CN(C)C(=O)c1cn2nc(-c3c[nH]c(=O)[nH]c3=O)cc([C@H]3C[C@@H]3c3ccc(F)cc3)c2n1 (racemic) [Example 197, 6-(2,4-dioxo-1H-pyrimidin-5-yl)-8-[(1S,2S)-2-(4-fluorophenyl)cyclopropyl]-N,N-dimethyl-imidazo[1,2-b]pyridazine-2-carboxamide] | 11 nM | 30.2 nM |
| CC1(C)CCN(C(=O)c2cccc([C@H]3C[C@@H]3c3cc(-c4c[nH]c(=O)[nH]c4=O)nn4ccnc34)c2)C1 (racemic) [Example 308, 5-(8-((1S,2S)-2-(3-(3,3-dimethylpyrrolidine-1-carbonyl)phenyl)cyclopropyl)imidazo[1,2-b]pyridazin-6-yl)pyrimidine-2,4(1H,3H)-dione] |  | 6.47 nM |
| NC(=O)c1ccc([C@H]2C[C@@H]2c2cc(-c3c[nH]c(=O)[nH]c3=O)nn3ccnc23)cc1 (racemic) [Example 283, 4-((2S,2S)-2-(6-(2,4-dioxo-1,2,3,4-tetrahydropyrimidin-5-yl)imidazo[1,2-b]pyridazin-8-yl)cyclopropyl)benzamide] | 0.87 nM | 2.75 nM |
| O=c1[nH]cc(-c2cc([C@H]3C[C@@H]3c3ccnc(C(F)(F)F)c3)c3nccn3n2)c(=O)[nH]1 (racemic) [Example 160, 5-(8-((2S,2S)-2-(2-(trifluoromethyl)pyridin-4-yl)cyclopropyl)imidazo[1,2-b]pyridazin-6-yl)pyrimidine-2,4(1H,3H)-dione] |  | 27.8 nM |
| O=c1[nH]cc(-c2cc(N3CC(OCC(F)(F)F)C(F)(F)C3)c3nccn3n2)c(=O)[nH]1 (stereo not drawn) [Example 203] | 3.03 nM |  |
| O=c1[nH]cc(-c2cc(N3CCC4(C3)CC4(F)F)c3nccn3n2)c(=O)[nH]1 (stereo not drawn) [Example 192] | 6.41 nM |  |
| O=c1[nH]cc(-c2cc([C@H]3C[C@@H]3c3ccc(OC(F)(F)F)cn3)c3ncc(F)n3n2)c(=O)[nH]1 (racemic) [Example 374, 5-(3-fluoro-8-((2S,2S)-2-(5-(trifluoromethoxy)pyridin-2-yl)cyclopropyl)imidazo[1,2-b]pyridazin-6-yl)pyrimidine-2,4(1H,3H)-dione] |  | 13.8 nM |
| O=c1[nH]cc(-c2cc([C@H]3C[C@@H]3c3ccc4cnn(CC5CC5)c4c3)c3nccn3n2)c(=O)[nH]1 (racemic) [Example 130, 5-(8-((2S,2S)-2-(1-(cyclopropylmethyl)-1H-indazol-6-yl)cyclopropyl)imidazo[1,2-b]pyridazin-6-yl)pyrimidine-2,4(1H,3H)-dione] |  | 0.13 nM |
| O=c1[nH]cc(-c2cc([C@H]3C[C@@H]3c3cc4c(cnn4CC(F)(F)F)cc3F)c3ncc(F)n3n2)c(=O)[nH]1 [Example 613, 5-(3-fluoro-8-((1S,2S)-2-(5-fluoro-1-(2,2,2-trifluoroethyl)-1H-indazol-6-yl)cyclopropyl)imidazo[1,2-b]pyridazin-6-yl)pyrimidine-2,4(1H,3H)-dione] | 0.58 nM | 0.71 nM |
| O=c1[nH]cc(-c2cc(N3C[C@H](O)C(F)(F)C3)c3nccn3n2)c(=O)[nH]1 (single isomer, unassigned) [Example 527] | 5.66 nM | 16.3 nM |
